The IC50 is the concentration that inhibits the measured activity by half. As usually defined, the CC50 is the concentration giving 50% cytotoxicity. Low values mean harm at low concentration, high ones better tolerance by the cells.

Data on 58 molecules can be found in ChEMBL document CHEMBL5532638, “Current development of 1,2,3-triazole derived potential antimalarial scaffolds: Structure- activity relationship (SAR) and bioactive compounds” (Eur J Med Chem, 2023).

Series [1] relates to Plasmodium falciparum. Nature of the series: Antiplasmodial activity against Plasmodium falciparum 3D7 infected in human red blood cells assessed as parasite growth inhibition incubated for 72 hrs by SYBR Green I staining based analysis. Type of series: functional, organism-based, Red blood cell. The conditions noted are these: 3D7, Erythrocyte.
The nature of series [2]: Cytotoxicity against human PC-3 cells incubated for 72 hrs by MTT assay. The format is toxicity, cell-based. A general note: Tetrazolium dyes change colour on reduction, which living cells bring about.
Series [3] concerns Plasmodium falciparum. As to the kind of experiment: Antimalarial activity against Plasmodium falciparum 3D7 assessed as parasite growth inhibition incubated for 42 hrs by [3H]-hypoxanthine incorporation assay. The format is functional, organism-based.
Series [4] has as its system Plasmodium falciparum. As to the kind of experiment: Antiplasmodial activity against CQ-resistant Plasmodium falciparum K1 infected in human O+ RBCs assessed as parasite growth inhibition incubated for 72 hrs by ELISA. The format is functional, organism-based. As to conditions: K1, 72 h. (In general: ELISA stands for enzyme-linked immunosorbent assay.)

Where only a bound is given, the exact number is not on record here.

Regarding `O=C(N/N=C/c1cn(-c2ccccc2)nn1)c1ccncc1`, the IC50 in series [1] is 2800 nM.

For the molecule `O=C(N/N=C/c1cn(-c2ccc(Cl)cc2)nn1)c1ccncc1`, the IC50 in series [1] was found to be 2800 nM.

Turning to `COc1ccc(-n2cc(/C=N/NC(=O)c3ccncc3)nn2)cc1`, the IC50 in series [1] was found to be 2800 nM.

For `COc1ccc(-n2cc(COC(=O)c3ccccc3)nn2)cc1`, in series [1], the IC50 came out at 2800 nM.

Turning to `CCOCc1cn(-c2ccc(Cl)cc2)nn1`, the IC50 in series [1] stood at 2800 nM.

Turning to `O=C(OCc1cnn(-c2ccccc2)n1)c1ccccc1`, the 50% inhibitory concentration (IC50) in series [1] is 2800 nM.

Take `O=C(OCc1cn(-c2ccccc2)nn1)c1ccccc1`: in series [1], the IC50 came to 2800 nM.

For the molecule `CCCOCc1cn(-c2cc(Cl)ccc2Cl)nn1`, the IC50 in series [1] is 2800 nM.

As to `CCCOCc1cn(-c2cc(Cl)cc(Cl)c2)nn1`, in series [1], the 50% inhibitory concentration (IC50) was 2800 nM.

With `CCOCc1cn(-c2cc(Cl)cc(Cl)c2)nn1`, the IC50 in series [1] was found to be 2800 nM.

For `COc1ccc(NS(=O)(=O)c2ccc(-n3cc(COc4c(OC)ccc5cc6[n+](cc45)CCc4cc5c(cc4-6)OCO5)nn3)cc2)cc1.[Cl-]`, in series [2], the CC50 at 72 h is above 200 µg/mL. Further, the IC50 in series [3] was 0.5 µg/mL.

Consider `COc1ccc2cc3[n+](cc2c1OCc1cn(-c2ccc(S(=O)(=O)Nc4ccc(F)cc4)cc2)nn1)CCc1cc2c(cc1-3)OCO2.[Cl-]`, for which, in series [2], the CC50 at 72 h is above 200 µg/mL. In addition, the IC50 in series [3] worked out at 0.1 µg/mL.

In series [2], `COc1ccc2cc3[n+](cc2c1OCc1cn(-c2ccc(S(=O)(=O)Nc4ccc(Cl)cc4)cc2)nn1)CCc1cc2c(cc1-3)OCO2` registered a cytotoxic concentration (CC50) at 72 h above 200 µg/mL.

Consider `COc1ccc2cc3[n+](cc2c1OCc1cn(-c2ccc(S(N)(=O)=O)cc2)nn1)CCc1cc2c(cc1-3)OCO2.[Cl-]`, for which, in series [2], the CC50 at 72 h was above 200 µg/mL. For the same molecule, in series [3], the IC50 stood at 0.1 µg/mL.

Molecule `COc1ccc2cc3[n+](cc2c1OCc1cn(-c2ccc(S(=O)(=O)Nc4ccccc4)cc2)nn1)CCc1cc2c(cc1-3)OCO2.[Cl-]` had a CC50 at 72 h in series [2] above 200 µg/mL. The IC50 in series [3] was determined as 0.2 µg/mL.

`COc1ccc2cc3[n+](cc2c1OCc1cn(-c2ccc(S(=O)(=O)Nc4ccc(Br)cc4)cc2)nn1)CCc1cc2c(cc1-3)OCO2.[Cl-]` gave a CC50 at 72 h in series [2] above 200 µg/mL. The IC50 in series [3] was 0.1 µg/mL.

Take `Clc1ccc(N/N=C/c2cnn(-c3ccccc3)n2)cc1`: the IC50 in series [1] amounted to 2800 nM.

On to `COc1ccc2cc3[n+](cc2c1OCc1cn(-c2ccc(S(=O)(=O)Nc4ccc([N+](=O)[O-])cc4)cc2)nn1)CCc1cc2c(cc1-3)OCO2.Cl`, for which, in series [2], the CC50 at 72 h was above 200 µg/mL. Moreover, the IC50 in series [3] stood at 0.1 µg/mL.

Take `Clc1ccc(N/N=C/c2cn(-c3ccc(Cl)cc3)nn2)cc1`: in series [1], the IC50 amounted to 2800 nM.

Turning to `O=C1C(Oc2ccccc2)C(c2ccc([N+](=O)[O-])cc2)N1c1ccc(OCc2cn(Cc3ccccc3)nn2)cc1` (stereo not given), in series [4], the IC50 was determined as 850 nM.

For the molecule `C=CCn1cc(COc2ccc(N3C(=O)C(Oc4ccccc4)C3c3cccc(OC)c3)cc2)nn1` (stereo not given), the half-maximal inhibitory concentration (IC50) in series [4] was 850 nM.

Regarding `Clc1cc(Cl)cc(-n2cc(/C=N/Nc3ccc(Br)cc3)nn2)c1`, the IC50 in series [1] worked out at 2800 nM.

On to `CCOC(=O)Cn1cc(COc2ccc(C3C(Oc4ccccc4)C(=O)N3c3ccc(OCc4cn(CC(=O)OCC)nn4)cc3)cc2)nn1` (stereo not given), for which the IC50 in series [4] came to 850 nM.

With `O=C1C(Oc2ccccc2)C(c2ccccc2)N1c1ccc(OCc2cn(Cc3ccccc3)nn2)cc1` (stereo not given), in series [4], the IC50 was 850 nM.

Regarding `C=CCn1cc(COc2ccc(N3C(=O)C(Oc4ccccc4)C3c3ccccc3)cc2)nn1` (stereo not given), the IC50 in series [4] amounted to 850 nM.

On to `COc1ccc(-n2cc(/C=N/Nc3ccccc3)nn2)cc1`, for which the IC50 in series [1] worked out at 4440 nM.

With `Cc1cccc(C)c1N/N=C/c1cn(-c2cc(Cl)cc(Cl)c2)nn1`, the IC50 in series [1] is 2800 nM.

With `O=C1C(Oc2ccccc2)C(c2ccccc2Cl)N1c1ccc(OCc2cn(Cc3ccccc3)nn2)cc1` (stereo not given), the IC50 in series [4] came out at 850 nM.

In the case of `C=CCn1cc(COc2ccc(C3C(Oc4ccccc4)C(=O)N3c3ccc(C)cc3)cc2)nn1` (stereo not given), the IC50 in series [4] was determined as 850 nM.

As for `COc1ccc2cc3[n+](cc2c1OCc1cn(-c2ccc(S(=O)(=O)Nc4nc(C)cc(C)n4)cc2)nn1)CCc1cc2c(cc1-3)OCO2.[Cl-]`, the CC50 at 72 h in series [2] is above 200 µg/mL. The IC50 in series [3] was determined as 0.1 µg/mL.

Regarding `Fc1ccc(N/N=C/c2cn(-c3ccc(Cl)cc3)nn2)cc1`, the IC50 in series [1] amounted to 8450 nM.

Consider `O/N=C/c1cn(-c2cc(Cl)ccc2Cl)nn1`, for which the IC50 in series [1] is 2800 nM.

As for `C=CCn1cc(COc2ccc(N3C(=O)C(Oc4ccccc4)C3c3ccc(C)cc3)cc2)nn1` (stereo not given), the IC50 in series [4] was 850 nM.

With `COc1ccc(N2C(=O)C(Oc3ccccc3)C2c2ccc(OCc3cn(Cc4ccccc4)nn3)cc2)cc1OC` (stereo not given), in series [4], the IC50 turned out to be 850 nM.

For the molecule `CCCCCCCCCC(=O)OCc1cn(-c2cc(Cl)cc(Cl)c2)nn1`, in series [1], the IC50 was determined as 2800 nM.

For `Clc1ccc(-n2cc(/C=N/Nc3c(Cl)cccc3Cl)nn2)cc1`, the IC50 in series [1] worked out at 2800 nM.

`Clc1ccc(Cl)c(-n2cc(/C=N/Nc3c(Cl)cccc3Cl)nn2)c1`: the IC50 in series [1] is 2800 nM.

`O=C(N/N=C/c1cnn(-c2ccccc2)n1)c1ccncc1`: the IC50 in series [1] is 2800 nM.

Regarding `Clc1cc(Cl)cc(-n2cc(/C=N/Nc3c(Cl)cccc3Cl)nn2)c1`, in series [1], the IC50 was 5560 nM.

As for `Cc1ccc(C2C(Oc3ccccc3)C(=O)N2c2ccc(OCc3cn(Cc4ccccc4)nn3)cc2)cc1` (stereo not given), in series [4], the IC50 came to 850 nM.

For the molecule `CCOC(=O)c1cnn(-c2ccccc2)c1`, the IC50 in series [1] is 2800 nM.

For the molecule `CCCCCCCCCC(=O)OCc1cn(-c2ccc(OC)cc2)nn1`, the IC50 in series [1] stood at 2800 nM.

For the molecule `C=CCn1cc(COc2ccc(C3C(Oc4ccccc4)C(=O)N3c3ccc(OCc4cn(CC=C)nn4)cc3)cc2)nn1` (stereo not given), the IC50 in series [4] came out at 850 nM.

As to `Fc1ccc(N/N=C/c2cnn(-c3ccccc3)n2)cc1`, in series [1], the IC50 is 2800 nM.

For `Cc1ccc(N2C(=O)C(Oc3ccccc3)C2c2ccc(OCc3cn(Cc4ccccc4)nn3)cc2)cc1` (stereo not given), in series [4], the IC50 amounted to 850 nM.

Consider `CCOC(=O)Cn1cc(COc2ccc(C3C(Oc4ccc(Cl)cc4Cl)C(=O)N3c3ccc(OCc4cn(CC(=O)OCC)nn4)cc3)cc2)nn1` (stereo not given), for which the half-maximal inhibitory concentration (IC50) in series [4] is 850 nM.

`C=CCn1cc(COc2ccc(N3C(=O)C(Oc4ccccc4)C3c3ccc([N+](=O)[O-])cc3)cc2)nn1` (stereo not given): the IC50 in series [4] was found to be 850 nM.

As to `C=CCn1cc(COc2ccc(C3C(Oc4ccccc4)C(=O)N3c3ccccc3)cc2)nn1` (stereo not given), the IC50 in series [4] was determined as 850 nM.

As for `O=C(N/N=C/c1cn(-c2cc(Cl)cc(Cl)c2)nn1)c1ccncc1`, the IC50 in series [1] worked out at 6960 nM.

Consider `C=CCn1cc(COc2ccc(C3C(Oc4ccc(Cl)cc4Cl)C(=O)N3c3ccc(OCc4cn(CC=C)nn4)cc3)cc2)nn1` (stereo not given), for which the IC50 in series [4] came to 850 nM.

For the molecule `C(=N\Nc1ccccc1)/c1cnn(-c2ccccc2)n1`, the 50% inhibitory concentration (IC50) in series [1] was 2800 nM.

As for `CCOC(=O)Cn1cc(COc2ccc(C3C(OC)C(=O)N3c3ccc(OCc4cn(CC(=O)OCC)nn4)cc3)cc2)nn1` (stereo not given), the IC50 in series [4] worked out at 850 nM.

For the molecule `O=C1C(Oc2ccccc2)C(c2ccc(OCc3cn(Cc4ccccc4)nn3)cc2)N1c1ccccc1` (stereo not given), in series [4], the IC50 amounted to 850 nM.

For `CCCCOCc1cn(-c2cc(Cl)cc(Cl)c2)nn1`, the IC50 in series [1] turned out to be 2800 nM.

`O=C1C(Oc2ccccc2)C(c2ccc(OCc3cn(Cc4ccccc4)nn3)cc2)N1c1ccc(OCc2cn(Cc3ccccc3)nn2)cc1` (stereo not given): the IC50 in series [4] was determined as 970 nM.

For `COc1ccc(-n2cc(/C=N/Nc3ccc(Cl)cc3)nn2)cc1`, the IC50 in series [1] was 2800 nM.

Turning to `O=C1C(Oc2ccc(Cl)cc2Cl)C(c2ccc(OCc3cn(Cc4ccccc4)nn3)cc2)N1c1ccc(OCc2cn(Cc3ccccc3)nn2)cc1` (stereo not given), the IC50 in series [4] worked out at 970 nM.

Turning to `COc1cccc(C2C(Oc3ccccc3)C(=O)N2c2ccc(OCc3cn(Cc4ccccc4)nn3)cc2)c1` (stereo not given), in series [4], the IC50 turned out to be 850 nM.
